# Values quoted from earlier work as cited in US10668130B2, “Formulation for targeting cancer in humans and canines using chlorotoxin” (priority 2017, dated 2020).
# Columns and labels:
# [1] = test system: Ca2+-activated Cl— channels; details: sub-micromolar concentrations
# [2] = test system: volume-regulated Cl— channels; details: sub-micromolar concentrations
# [3] = test system: outwardly rectifying Cl— channels; details: planar lipid bilayers
# CFTR Cl— channels = CFTR Cl— channels (Homo sapiens, UniProt P13569); details: sub-micromolar concentrations
# Chain of CFTR Cl— channels (P13569 whole entry): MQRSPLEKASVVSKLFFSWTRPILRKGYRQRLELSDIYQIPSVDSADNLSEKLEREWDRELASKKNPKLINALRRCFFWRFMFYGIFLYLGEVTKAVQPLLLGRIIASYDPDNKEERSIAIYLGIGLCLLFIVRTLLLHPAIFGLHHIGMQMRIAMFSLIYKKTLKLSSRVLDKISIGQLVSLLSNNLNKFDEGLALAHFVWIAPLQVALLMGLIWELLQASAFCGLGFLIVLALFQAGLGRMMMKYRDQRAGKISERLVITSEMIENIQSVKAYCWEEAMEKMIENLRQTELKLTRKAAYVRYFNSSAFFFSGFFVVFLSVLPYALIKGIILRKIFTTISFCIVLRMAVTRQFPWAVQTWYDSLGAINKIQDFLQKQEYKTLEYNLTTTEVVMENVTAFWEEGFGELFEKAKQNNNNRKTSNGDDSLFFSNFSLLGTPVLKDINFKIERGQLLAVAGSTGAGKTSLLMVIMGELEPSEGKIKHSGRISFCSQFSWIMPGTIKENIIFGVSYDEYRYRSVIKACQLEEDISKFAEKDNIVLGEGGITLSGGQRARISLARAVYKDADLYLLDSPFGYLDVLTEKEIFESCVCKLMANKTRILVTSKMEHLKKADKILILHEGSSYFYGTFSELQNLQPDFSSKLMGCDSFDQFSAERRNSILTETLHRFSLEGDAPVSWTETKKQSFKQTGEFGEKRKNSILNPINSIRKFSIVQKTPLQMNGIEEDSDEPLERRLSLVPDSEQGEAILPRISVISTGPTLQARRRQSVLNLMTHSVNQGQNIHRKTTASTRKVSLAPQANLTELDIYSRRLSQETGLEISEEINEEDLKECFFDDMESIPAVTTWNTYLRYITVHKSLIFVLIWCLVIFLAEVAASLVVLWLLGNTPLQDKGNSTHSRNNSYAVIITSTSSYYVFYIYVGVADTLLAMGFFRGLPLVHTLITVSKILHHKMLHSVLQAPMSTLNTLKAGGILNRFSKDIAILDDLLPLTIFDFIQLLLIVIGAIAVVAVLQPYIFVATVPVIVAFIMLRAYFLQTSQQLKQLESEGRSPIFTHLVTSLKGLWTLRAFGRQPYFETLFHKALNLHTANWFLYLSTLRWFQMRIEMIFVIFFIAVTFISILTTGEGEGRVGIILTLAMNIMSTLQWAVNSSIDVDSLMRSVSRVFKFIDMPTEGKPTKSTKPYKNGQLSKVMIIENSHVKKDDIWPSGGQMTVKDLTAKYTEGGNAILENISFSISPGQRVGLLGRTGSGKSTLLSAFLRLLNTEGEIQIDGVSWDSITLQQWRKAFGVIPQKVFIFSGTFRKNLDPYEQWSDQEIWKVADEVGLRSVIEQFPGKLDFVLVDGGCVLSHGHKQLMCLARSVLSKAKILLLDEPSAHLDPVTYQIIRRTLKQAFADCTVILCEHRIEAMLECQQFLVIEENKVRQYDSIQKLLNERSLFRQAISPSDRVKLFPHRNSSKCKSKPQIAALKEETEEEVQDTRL
substance,measurement,setting,value
chlorotoxin,effect on Ca2+-activated Cl— channels,[1],without effect
same,effect on volume-regulated Cl— channels,[2],without effect
same,effect on outwardly rectifying Cl— channels,[3],inhibited
same,effect on CFTR Cl— channels,CFTR Cl— channels,without effect
